# Data taken from ChEMBL document CHEMBL5506069, “A Unique Hybridization Route to Access Hydrazylnaphthalimidols as Novel Structural Scaffolds of Multitargeting Broad-Spectrum Antifungal Candidates” (J Med Chem, 2024).
# Tests used:
# Assay type in all cases: functional
# [1] = tested on: Candida tropicalis; test: Antifungal activity against Candida tropicalis assessed as inhibition of fungal growth incubated for 24 hrs by CLSI based microbroth dilution method
# [2] = tested on: Candida albicans; test: Antifungal activity against Candida albicans ATCC 90023 assessed as inhibition of fungal growth incubated for 24 hrs by CLSI based microbroth dilution method
# [3] = tested on: Candida parapsilosis; test: Antifungal activity against Candida parapsilosis ATCC 22019 assessed as inhibition of fungal growth incubated for 24 hrs by CLSI based microbroth dilution method; settings: Lodderomyces parapsilosis
# [4] = tested on: Candida albicans; test: Antifungal activity against Candida albicans assessed as inhibition of fungal growth incubated for 24 hrs by CLSI based microbroth dilution method
# [5] = tested on: Aspergillus fumigatus; test: Antifungal activity against Aspergillus fumigatus assessed as inhibition of fungal growth incubated for 24 hrs by CLSI based microbroth dilution method
structure (smiles),measurement,setting,value
C/C(Cn1c([N+](=O)[O-])cnc1C)=N\Nc1ccc2c3c(cccc13)C(=O)N(c1ccc(C(F)(F)F)cc1Cl)C2=O,MIC,[1],477 µM
same,MIC,[2],954 µM
same,MIC,[3],239 µM
same,MIC,[4],477 µM
same,MIC,[5],477 µM
CCCCc1nc(Cl)c(/C=N/Nc2ccc3c4c(cccc24)C(=O)N(CCO)C3=O)n1CC1CCCCC1,MIC,[1],15 µM
same,MIC,[2],7 µM
same,MIC,[3],60 µM
same,MIC,[4],120 µM
same,MIC,[5],2 µM
CCCCc1nc(Cl)c(/C=N/Nc2ccc3c4c(cccc24)C(=O)N(CCO)C3=O)n1Cc1ccc(Cl)cc1,MIC,[1],28 µM
same,MIC,[2],7 µM
same,MIC,[3],57 µM
same,MIC,[4],57 µM
same,MIC,[5],57 µM
O=C1c2cccc3c(N/N=C/c4ccncc4)ccc(c23)C(=O)N1CCO,MIC,[1],355 µM
same,MIC,[2],711 µM
same,MIC,[3],355 µM
same,MIC,[4],355 µM
same,MIC,[5],355 µM
CCCCc1nc(Cl)c(/C=N/Nc2ccc3c4c(cccc24)C(=O)N(CCO)C3=O)n1CC,MIC,[1],34 µM
same,MIC,[2],137 µM
same,MIC,[3],548 µM
same,MIC,[4],274 µM
same,MIC,[5],68 µM
CCCCCn1c(CCCC)nc(Cl)c1/C=N/Nc1ccc2c3c(cccc13)C(=O)N(CCO)C2=O,MIC,[1],16 µM
same,MIC,[2],126 µM
same,MIC,[3],251 µM
same,MIC,[4],251 µM
same,MIC,[5],63 µM
CCCCCN1C(=O)c2cccc3c(N/N=C(\C)Cn4c([N+](=O)[O-])cnc4C)ccc(c23)C1=O,MIC,[1],1110 µM
same,MIC,[2],1110 µM
same,MIC,[3],554 µM
same,MIC,[4],1110 µM
same,MIC,[5],554 µM
CCCCc1nc(Cl)c(/C=N/Nc2ccc3c4c(cccc24)C(=O)N(CCO)C3=O)n1Cc1ccc(Cl)cc1Cl,MIC,[1],54 µM
same,MIC,[2],3 µM
same,MIC,[3],13 µM
same,MIC,[4],54 µM
same,MIC,[5],214 µM
C/C(Cn1c([N+](=O)[O-])cnc1C)=N\Nc1ccc2c3c(cccc13)C(=O)N(Cc1ccc(F)cc1)C2=O,MIC,[1],1020 µM
same,MIC,[2],1020 µM
same,MIC,[3],1020 µM
same,MIC,[4],1020 µM
same,MIC,[5],1020 µM
CCCCCCCn1c(CCCC)nc(Cl)c1/C=N/Nc1ccc2c3c(cccc13)C(=O)N(CCO)C2=O,MIC,[1],60 µM
same,MIC,[2],119 µM
same,MIC,[3],238 µM
same,MIC,[4],119 µM
same,MIC,[5],119 µM
CCCCc1nc(Cl)c(/C=N/Nc2ccc3c4c(cccc24)C(=O)N(CCO)C3=O)n1Cc1cccc(F)c1,MIC,[1],58 µM
same,MIC,[2],7 µM
same,MIC,[3],29 µM
same,MIC,[4],117 µM
same,MIC,[5],58 µM
CCCCc1nc(Cl)c(/C=N/Nc2ccc3c4c(cccc24)C(=O)N(CCO)C3=O)n1C,MIC,[1],141 µM
same,MIC,[2],71 µM
same,MIC,[3],565 µM
same,MIC,[4],71 µM
same,MIC,[5],18 µM
C/C(Cn1c([N+](=O)[O-])cnc1C)=N\Nc1ccc2c3c(cccc13)C(=O)N(CCO)C2=O,MIC,[1],1170 µM
same,MIC,[2],1170 µM
same,MIC,[3],1170 µM
same,MIC,[4],1170 µM
same,MIC,[5],587 µM
O=C1c2cccc3c(N/N=C/c4c(Cl)cccc4Cl)ccc(c23)C(=O)N1CCO,MIC,[1],150 µM
same,MIC,[2],300 µM
same,MIC,[3],599 µM
same,MIC,[4],150 µM
same,MIC,[5],300 µM
CCCCc1nc(Cl)c(/C=N/Nc2ccc3c4c(cccc24)C(=O)N(CCO)C3=O)n1CC1CC1,MIC,[1],32 µM
same,MIC,[2],8 µM
same,MIC,[3],65 µM
same,MIC,[4],65 µM
same,MIC,[5],8 µM
O=C1c2cccc3c(N/N=C/c4cncs4)ccc(c23)C(=O)N1CCO,MIC,[1],87 µM
same,MIC,[2],44 µM
same,MIC,[3],22 µM
same,MIC,[4],350 µM
same,MIC,[5],175 µM
O=C1c2cccc3c(N/N=C/c4ccco4)ccc(c23)C(=O)N1CCO,MIC,[1],87 µM
same,MIC,[2],175 µM
same,MIC,[3],351 µM
same,MIC,[4],87 µM
same,MIC,[5],87 µM
O=C1c2cccc3c(N/N=C/c4cnc(-c5ccccc5)s4)ccc(c23)C(=O)N1CCO,MIC,[1],87 µM
same,MIC,[2],22 µM
same,MIC,[3],5 µM
same,MIC,[4],87 µM
same,MIC,[5],44 µM
CCCCc1nc(Cl)c(/C=N/Nc2ccc3c4c(cccc24)C(=O)N(CCO)C3=O)n1Cc1ccccc1F,MIC,[1],15 µM
same,MIC,[2],15 µM
same,MIC,[3],15 µM
same,MIC,[4],58 µM
same,MIC,[5],58 µM
CCCCc1nc(Cl)c(/C=N/Nc2ccc3c4c(cccc24)C(=O)N(CCO)C3=O)n1Cc1ccccc1Cl,MIC,[1],57 µM
same,MIC,[2],4 µM
same,MIC,[3],57 µM
same,MIC,[4],57 µM
same,MIC,[5],227 µM
CCCCCCN1C(=O)c2cccc3c(N/N=C(\C)Cn4c([N+](=O)[O-])cnc4C)ccc(c23)C1=O,MIC,[1],1070 µM
same,MIC,[2],1070 µM
same,MIC,[3],1070 µM
same,MIC,[4],1070 µM
same,MIC,[5],1070 µM
O=C1c2cccc3c(N/N=C/c4ccc([N+](=O)[O-])s4)ccc(c23)C(=O)N1CCO,MIC,[1],156 µM
same,MIC,[2],78 µM
same,MIC,[3],78 µM
same,MIC,[4],39 µM
same,MIC,[5],19 µM
C/C(Cn1c([N+](=O)[O-])cnc1C)=N\Nc1ccc2c3c(cccc13)C(=O)N(c1ccc(Cl)cc1Cl)C2=O,MIC,[1],238 µM
same,MIC,[2],953 µM
same,MIC,[3],119 µM
same,MIC,[4],238 µM
same,MIC,[5],238 µM
O=C1c2cccc3c(N/N=C/c4ccc(O)cc4O)ccc(c23)C(=O)N1CCO,MIC,[1],655 µM
same,MIC,[2],655 µM
same,MIC,[3],327 µM
same,MIC,[4],327 µM
same,MIC,[5],327 µM
Cc1ccc(/C=N/Nc2ccc3c4c(cccc24)C(=O)N(CCO)C3=O)o1,MIC,[1],84 µM
same,MIC,[2],84 µM
same,MIC,[3],169 µM
same,MIC,[4],42 µM
same,MIC,[5],338 µM
CCN1C(=O)c2cccc3c(N/N=C/c4ccc([N+](=O)[O-])o4)ccc(c23)C1=O,MIC,[1],84 µM
same,MIC,[2],84 µM
same,MIC,[3],168 µM
same,MIC,[4],42 µM
same,MIC,[5],338 µM
CCCCc1nc(Cl)c(/C=N/Nc2ccc3c4c(cccc24)C(=O)N(CCO)C3=O)n1Cc1ccc([N+](=O)[O-])cc1,MIC,[1],28 µM
same,MIC,[2],7 µM
same,MIC,[3],14 µM
same,MIC,[4],111 µM
same,MIC,[5],111 µM
O=C1c2cccc3c(N/N=C/c4cc[nH]c4)ccc(c23)C(=O)N1CCO,MIC,[1],23 µM
same,MIC,[2],367 µM
same,MIC,[3],46 µM
same,MIC,[4],367 µM
same,MIC,[5],92 µM
C#CCn1c(CCCC)nc(Cl)c1/C=N/Nc1ccc2c3c(cccc13)C(=O)N(CCO)C2=O,MIC,[1],2 µM
same,MIC,[2],17 µM
same,MIC,[3],67 µM
same,MIC,[4],67 µM
same,MIC,[5],8 µM
C=CCn1c(CCCC)nc(Cl)c1/C=N/Nc1ccc2c3c(cccc13)C(=O)N(CCO)C2=O,MIC,[1],2 µM
same,MIC,[2],33 µM
same,MIC,[3],134 µM
same,MIC,[4],67 µM
same,MIC,[5],17 µM
O=C1c2cccc3c(N/N=C/c4ccc(CO)o4)ccc(c23)C(=O)N1CCO,MIC,[1],5 µM
same,MIC,[2],5 µM
same,MIC,[3],21 µM
same,MIC,[4],21 µM
same,MIC,[5],10 µM
CCCCc1nc(Cl)c(/C=N/Nc2ccc3c4c(cccc24)C(=O)N(CCO)C3=O)n1CCC,MIC,[1],67 µM
same,MIC,[2],67 µM
same,MIC,[3],266 µM
same,MIC,[4],133 µM
same,MIC,[5],33 µM
CCCN1C(=O)c2cccc3c(N/N=C(\C)Cn4c([N+](=O)[O-])cnc4C)ccc(c23)C1=O,MIC,[1],1180 µM
same,MIC,[2],1180 µM
same,MIC,[3],1180 µM
same,MIC,[4],1180 µM
same,MIC,[5],1180 µM
O=C1c2cccc3c(N/N=C/c4ncc[nH]4)ccc(c23)C(=O)N1CCO,MIC,[1],92 µM
same,MIC,[2],183 µM
same,MIC,[3],6 µM
same,MIC,[4],367 µM
same,MIC,[5],183 µM
CCN1C(=O)c2cccc3c(N/N=C(\C)Cn4c([N+](=O)[O-])cnc4C)ccc(c23)C1=O,MIC,[1],1220 µM
same,MIC,[2],1220 µM
same,MIC,[3],1220 µM
same,MIC,[4],1220 µM
same,MIC,[5],1220 µM
C[n+]1ccc(/C=N/Nc2ccc3c4c(cccc24)C(=O)N(CCO)C3=O)cc1,MIC,[1],255 µM
same,MIC,[2],8 µM
same,MIC,[3],64 µM
same,MIC,[4],16 µM
same,MIC,[5],127 µM
O=C1c2cccc3c(N/N=C/c4cc(Cl)ccc4O)ccc(c23)C(=O)N1CCO,MIC,[1],313 µM
same,MIC,[2],313 µM
same,MIC,[3],626 µM
same,MIC,[4],626 µM
same,MIC,[5],313 µM
C=CCN1C(=O)c2cccc3c(N/N=C(\C)Cn4c([N+](=O)[O-])cnc4C)ccc(c23)C1=O,MIC,[1],1190 µM
same,MIC,[2],1190 µM
same,MIC,[3],1190 µM
same,MIC,[4],1190 µM
same,MIC,[5],595 µM
CCCCc1nc(Cl)c(/C=N/Nc2ccc3c4c(cccc24)C(=O)N(CCO)C3=O)n1CC(=O)OCC,MIC,[1],2 µM
same,MIC,[2],61 µM
same,MIC,[3],244 µM
same,MIC,[4],30 µM
same,MIC,[5],61 µM
CCCCCCCCN1C(=O)c2cccc3c(N/N=C(\C)Cn4c([N+](=O)[O-])cnc4C)ccc(c23)C1=O,MIC,[1],1020 µM
same,MIC,[2],1020 µM
same,MIC,[3],1020 µM
same,MIC,[4],1020 µM
same,MIC,[5],1020 µM
O=C1c2cccc3c(N/N=C/c4ccccn4)ccc(c23)C(=O)N1CCO,MIC,[1],711 µM
same,MIC,[2],355 µM
same,MIC,[3],711 µM
same,MIC,[4],355 µM
same,MIC,[5],355 µM
O=C1c2cccc3c(N/N=C/c4nccs4)ccc(c23)C(=O)N1CCO,MIC,[1],175 µM
same,MIC,[2],350 µM
same,MIC,[3],175 µM
same,MIC,[4],699 µM
same,MIC,[5],350 µM
O=C1c2cccc3c(N/N=C/c4cccc(O)c4)ccc(c23)C(=O)N1CCO,MIC,[1],682 µM
same,MIC,[2],341 µM
same,MIC,[3],341 µM
same,MIC,[4],341 µM
same,MIC,[5],171 µM
NNc1ccc2c3c(cccc13)C(=O)N(CCO)C2=O,MIC,[1],118 µM
same,MIC,[2],118 µM
same,MIC,[3],236 µM
same,MIC,[4],118 µM
same,MIC,[5],118 µM
O=C1c2cccc3c(N/N=C/c4ccc[nH]4)ccc(c23)C(=O)N1CCO,MIC,[1],367 µM
same,MIC,[2],92 µM
same,MIC,[3],46 µM
same,MIC,[4],183 µM
same,MIC,[5],367 µM
O=C1c2cccc3c(N/N=C/C=C/c4ccc([N+](=O)[O-])o4)ccc(c23)C(=O)N1CCO,MIC,[1],38 µM
same,MIC,[2],38 µM
same,MIC,[3],152 µM
same,MIC,[4],9 µM
same,MIC,[5],76 µM
C#CCN1C(=O)c2cccc3c(N/N=C(\C)Cn4c([N+](=O)[O-])cnc4C)ccc(c23)C1=O,MIC,[1],1180 µM
same,MIC,[2],1180 µM
same,MIC,[3],1180 µM
same,MIC,[4],1180 µM
same,MIC,[5],296 µM
